# Laboratory results taken from patent US12178818B2, “Methods for treating immune thrombocytopenia by administering (R)-2-[3-[4-amino-3-(2-fluoro-4-phenoxy-phenyl)pyrazolo[3,4-d]pyrimidin-1-yl]piperidine-1-carbonyl]-4-methyl-4-[4-(oxetan-3-yl)piperazin-1-yl]pent-2-enenitrile” (Principia Biopharma Inc., priority 2019, dated 2024).
# Tests used:
# 251-kinase panel = assay: 251-kinase panel, kinase selectivity; assay type: biochemical; details: 1 μM
# human B cell activation = human B cell activation in vitro; assay type: cell-based
# Fc receptor signaling = assay: antibody mediated activation of immune cells in vitro; assay type: cell-based
# [1] = tested on: rat collagen-induced arthritis model; assay: rat collagen-induced arthritis model; assay type: in vivo
# [2] = tested on: rat antibody-mediated arthus model; assay: rat antibody-mediated arthus model; assay type: in vivo
# [3] = tested on: spontaneous canine pemphigus foliaceus; assay: spontaneous canine pemphigus foliaceus; assay type: in vivo
# blood platelets = assay: ex vivo platelet aggregation, standard panel of platelet agonists; assay type: cell-based, human; details: for platelet aggregation: ≤1 μM, standard panel of platelet agonists
# [4] = in vivo
# P-gp = P-gp (Homo sapiens, UniProt P08183); details: not told
# [5] = in vivo; remark: listed apart in the source
# Excerpt: TEAEs include all AEs that start on or after the first dose of study medication, or AEs that are present prior to the first dose of study medication, but their severity or relationship increases after the first dose of study medication up to and including the final study medication dosing date. Within each preferred term, patients are counted only once if they had more than one event reported during the dosing period.
# Non-hematologic DLT is considered any >Grade 3 non-hematologic toxicity per the NCI Common Terminology Criteria for Adverse Events (CTCAE), version 4.0, with the following exceptions: laboratory TEAEs that are asymptomatic and return to baseline or to Grade 1 within 7 days; fatigue; nausea, vomiting or diarrhea that return to baseline or Grade 1 within 7 days; and systemic reactions (such as, e.g., fever, headache) that return to baseline or Grade 1 within 7 days. Any toxicity that, at the discretion of the Investigator, is thought to warrant withholding the study drug for more than 7 days is also considered a DLT.
# The AE Collection Period begins at the time of the first screening/eligibility assessment and ends at the end of the study for each patient. […] An AE can therefore be any unfavorable and unintended sign (including an abnormal laboratory finding, for example), symptom, or disease temporally associated with the use of an investigational product, whether or not considered related to the product. Investigators are instructed to record all AEs encountered during the clinical study in detail from the date of participant consent throughout the study follow-up period. Pre-existing conditions that worsen during a study are reported as AEs.
# Investigators are instructed to report all clinical AEs encountered during the study. The intensity of AEs is graded based on the NCI CTCAE, Version 4.0 or higher. For any AEs not found in the CTCAE, a description of intensity grading can be found below: • Grade 1: Mild; asymptomatic or mild symptoms; clinical or diagnostic observations only; intervention not indicated. • Grade 2: Moderate; minimal, local or noninvasive intervention indicated; limiting age-appropriate instrumental activities of daily living. • Grade 3: Severe or medically significant but not immediately life-threatening; hospitalization or prolongation of hospitalization indicated; disabling; limiting self-care activities of daily living.
# [6] = Phase 1 study, healthy volunteers; cited from earlier work
# clinical = details: human, in vivo
# pemphigus patients = assay: human pemphigus (PV; Study PRN1008-005)
# [7] = tested on: mouse model of anti-platelet driven immune thrombocytopenia; assay: mouse model of immune thrombocytopenia, platelet count
# P-gp, sequence (P08183 whole entry): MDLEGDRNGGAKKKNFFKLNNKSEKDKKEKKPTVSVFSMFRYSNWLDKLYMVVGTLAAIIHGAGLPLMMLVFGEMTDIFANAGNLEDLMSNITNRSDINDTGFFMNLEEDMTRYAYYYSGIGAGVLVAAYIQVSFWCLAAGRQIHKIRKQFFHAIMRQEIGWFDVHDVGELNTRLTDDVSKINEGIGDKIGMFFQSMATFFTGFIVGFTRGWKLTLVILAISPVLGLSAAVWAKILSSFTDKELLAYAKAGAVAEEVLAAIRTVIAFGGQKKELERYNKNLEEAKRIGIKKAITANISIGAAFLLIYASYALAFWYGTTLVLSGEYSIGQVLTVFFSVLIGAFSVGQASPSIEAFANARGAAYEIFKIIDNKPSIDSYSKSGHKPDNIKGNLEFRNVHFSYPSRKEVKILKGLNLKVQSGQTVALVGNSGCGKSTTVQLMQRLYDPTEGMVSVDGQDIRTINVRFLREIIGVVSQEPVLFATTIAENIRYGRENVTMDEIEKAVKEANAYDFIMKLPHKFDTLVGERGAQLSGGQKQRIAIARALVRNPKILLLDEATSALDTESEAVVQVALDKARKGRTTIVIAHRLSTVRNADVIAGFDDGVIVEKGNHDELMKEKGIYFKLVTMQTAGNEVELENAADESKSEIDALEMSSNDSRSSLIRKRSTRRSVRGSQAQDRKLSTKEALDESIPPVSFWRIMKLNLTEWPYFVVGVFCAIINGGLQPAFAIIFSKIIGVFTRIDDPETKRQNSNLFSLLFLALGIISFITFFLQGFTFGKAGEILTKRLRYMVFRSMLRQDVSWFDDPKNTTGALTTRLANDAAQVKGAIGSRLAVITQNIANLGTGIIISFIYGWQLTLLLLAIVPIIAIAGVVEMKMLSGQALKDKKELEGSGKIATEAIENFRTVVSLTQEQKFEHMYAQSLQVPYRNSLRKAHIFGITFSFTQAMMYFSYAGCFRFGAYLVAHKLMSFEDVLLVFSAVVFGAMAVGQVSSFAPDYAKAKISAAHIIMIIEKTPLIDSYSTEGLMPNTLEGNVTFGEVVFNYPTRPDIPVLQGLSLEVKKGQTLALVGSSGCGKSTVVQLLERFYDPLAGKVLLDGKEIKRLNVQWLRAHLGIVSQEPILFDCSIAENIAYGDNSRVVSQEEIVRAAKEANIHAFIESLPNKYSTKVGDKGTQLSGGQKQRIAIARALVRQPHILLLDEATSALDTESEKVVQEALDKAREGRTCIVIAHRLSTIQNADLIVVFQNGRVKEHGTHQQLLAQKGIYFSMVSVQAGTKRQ
smiles,measurement,setting,value
"CC(C)(C=C(C#N)C(=O)N1CCC[C@@H](n2nc(-c3ccc(Oc4ccccc4)cc3F)c3c(N)ncnc32)C1)N1CCN(C2COC2)CC1 [PRN1008, (R)-2-[3-[4-amino-3-(2-fluoro-4-phenoxy-phenyl)pyrazolo[3,4-d]pyrimidin-1-yl]piperidine-1-carbonyl]-4-methyl-4-[4-(oxetan-3-yl)piperazin-1-yl]pent-2-enenitrile]",number of kinases with >90% inhibition,251-kinase panel,6 kinases
same,human B cell activation,human B cell activation,profoundly inhibits
same,"antibody (IgG, IgE) mediated activation of immune cells via Fc receptor signaling",Fc receptor signaling,blocks
same,anti-inflammatory effects,[1],rapid and significant anti-inflammatory effects
same,anti-inflammatory effects,[2],rapid and significant anti-inflammatory effects
same,anti-inflammatory effects,[3],rapid and significant anti-inflammatory effects
same,platelet aggregation,blood platelets; blood of ITP patients,no effect
same,platelet aggregation,blood platelets; blood of healthy volunteers,no effect
same,collagen-induced platelet aggregation,"blood platelets; normal or ITP patient platelet samples, clinically relevant concentrations",did not impact
same,impact of food on extent of absorption,[4],does not appear to impact
same,P-gp substrate,P-gp,substrate
same,CYP3A inhibitor,CYP3A,inhibitor
same,CYP3A substrate,CYP3A,substrate
same,"All related TEAEs, Grade 1",[5]; human,10 (21) n (%)
same,"All related TEAEs, Grade 2",[5]; human,11 (23) n (%)
same,"Related TEAEs, Abdominal distension, Grade 1/2",[5]; human,3 (10) n (%)
same,"Related TEAEs, All TEAEs, Grade 1/2",[5]; human,11 (35) n (%)
same,"Related TEAEs, Diarrhea, Grade 1",[5]; human,14 (30) n (%)
same,"Related TEAEs, Diarrhea, Grade 1/2",[5]; human,7 (23) n (%)
same,"Related TEAEs, Diarrhea, Grade 2",[5]; human,2 (4) n (%)
same,"Related TEAEs, Fatigue, Grade 1",[5]; human,5 (11) n (%)
same,"Related TEAEs, Fatigue, Grade 1/2",[5]; human,3 (10) n (%)
same,"Related TEAEs, Fatigue, Grade 2",[5]; human,1 (2) n (%)
same,"Related TEAEs, Nausea, Grade 1",[5]; human,12 (26) n (%)
same,"Related TEAEs, Nausea, Grade 1/2",[5]; human,8 (26) n (%)
same,"Related TEAEs, Nausea, Grade 2",[5]; human,1 (2) n (%)
same,dose-limiting toxicities,[5],No dose-limiting toxicities were observed
same,related serious adverse events,[5],No related serious adverse events were reported
same,thrombotic events,[5],no thrombotic events
same,treatment related bleeding or thrombotic events,[5],no reported treatment related bleeding or thrombotic events
same,most commonly reported adverse events,[6],"gastrointestinal adverse events, including nausea/vomiting and diarrhea"
same,serious adverse events or deaths,[6],No serious adverse events or deaths were reported
same,Tmax,clinical,~2.5 h
same,half-life,clinical; po,3 to 4 h
same,onset of clinical effect in most pemphigus patients,pemphigus patients; Study PRN1008-005,≤ 4 weeks
same,anti-inflammatory effects,pemphigus patients; human pemphigus vulgaris (PV),rapid and significant anti-inflammatory effects
same,platelet decrease from baseline,"[7]; 10 mg/kg/d, anti-platelet challenge (vehicle 83.1%)",71.9%
same,platelet-loss (consumption),[7]; mouse model of immune thrombocytopenia,significant dose dependent reduction
